According to patent US20150315211A1, “SMALL MOLECULES FOR THE MODULATION OF MCL-1 AND METHODS OF MODULATING CELL DEATH, CELL DIVISION, CELL DIFFERENTIATION AND METHODS OF TREATING DISORDERS” (priority 2010, published 2015):
Like-named read-outs stand apart in the source and are kept apart here.

Assays:
[1] = system: MCL-1ΔNΔC; assay: High-throughput competitive FP binding screen, FITC-MCL-1 SAHB/MCL-1ΔNΔC interaction
[2] = target: BCL-XLΔC (Homo sapiens, UniProt Q07817); assay: High-throughput competitive FP binding screen, FITC-BAD BH3/BCL-XLΔC interaction
[3] = target: MCL-1ΔNΔC (Homo sapiens, UniProt Q07820); assay: High-throughput competitive FP binding screen, FITC-MCL-1 SAHB/MCL-1ΔNΔC interaction; set-up: the C-terminal alpha-helix was deleted from each of these constructs; GST (N, cleaved yes); made in house
[4] = selectivity for MCL-1ΔNΔC over BCL-XLΔC targeting (BCL-XL % Bound minus MCL-1 % Bound)
[5] = FITC-BAD BH3/BCL-XLΔC interaction pair, competitive FP screen
[6] = FITC-MCL-1 SAHB/MCL-1ΔNΔC interaction pair, competitive FP screen

Sequence of MCL-1ΔNΔC (Homo sapiens, UniProt Q07820) (Q07820 172-320 limits assumed, stated change not applied): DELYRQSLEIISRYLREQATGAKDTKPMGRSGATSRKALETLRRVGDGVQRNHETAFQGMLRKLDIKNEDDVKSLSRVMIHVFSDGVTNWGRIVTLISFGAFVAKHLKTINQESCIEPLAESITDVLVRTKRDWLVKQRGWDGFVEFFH
Sequence of BCL-XLΔC (Q07817 1-212 limits assumed, stated change not applied): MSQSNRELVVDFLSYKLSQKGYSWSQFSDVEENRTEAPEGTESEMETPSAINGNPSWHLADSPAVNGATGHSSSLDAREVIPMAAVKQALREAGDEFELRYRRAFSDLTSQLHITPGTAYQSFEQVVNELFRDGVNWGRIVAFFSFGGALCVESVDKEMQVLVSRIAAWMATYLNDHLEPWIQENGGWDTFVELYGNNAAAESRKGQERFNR

SMILES	Spec Values [1, 4]	BCL-XL % Bound [2, 5] [%]	MCL-1% Bound [3, 6] [%]	Spec Values [1]	BCL-XL % Bound [2] [%]	MCL-1% Bound [3] [%]
CCOC(=O)C(C)Oc1cccc2c(=O)n(CC(=O)Nc3ccc4c(c3)CCCO4)ccc12 (stereo not drawn)	67.48	102	34.53			
CS(=O)(=O)C1=NN2C(=N)/C(=C\c3ccc(-c4ccc(Cl)cc4)o3)C(=O)N=C2S1	49.33	82.61	33.28			
O=C(c1ccccc1)c1ccc2nc(-c3ccco3)c(-c3ccco3)nc2c1	86.7	101.3	14.6			
CCOc1cc(C=C2C(=O)N(C)C(=S)N(C)C2=O)ccc1OC(C)C(=O)O (stereo not drawn)				56.22	98.2	41.99
CC1=CC(=O)C(CCCC2=CC(=O)C=CC2=O)=CC1=O	48.07	92.47	44.41			
N=C1NC(=O)/C(=C2/C(=O)Nc3ccc(Br)cc32)S1	45.52	95.58	50.06			
Cc1nc(COC(=O)c2cc(O)c3ccccc3c2O)cs1	61.73	101.3	39.52			
CC1=NOC(=O)/C1=C/c1ccc(-c2ccc(Cl)cc2)o1 [drawing 53]				65.98	101.5	38.47
CCOC(=O)c1c(C)oc2c1c1c(c3ccccc32)OCN(C2CC(C)(C)NC(C)(C)C2)C1	50.9	85	34.11			
O=C1C=Cc2ccc3c4c(ccc1c24)C=CC3=O	64.7	91.4	26.7			
Oc1ccc(C2Oc3ccccc3C3CC(c4ccccc4O)=NN32)cc1 (stereo not drawn)	45.43	93.42	47.99			
Cc1c(Cl)cccc1N1C(=O)CC(N2CCCc3ccccc32)C1=O (stereo not drawn)	48.92	84.74	35.82			
CN(C)c1ccc(/C=C2\SC(=O)N(CCC(=O)Nc3ccccc3)C2=O)cc1	62.76	92.22	29.45			
O=c1c(O)c(-c2ccc(O)c(O)c2)oc2cc(O)cc(O)c12 [drawing 167]	88.65	105.3	16.69			
O=C1NC(=S)N/C1=C1/C(=O)Nc2ccccc21	98.82	112.9	14.04			
O=C1C=CC(=O)N1CCc1ccc(Cl)cc1	55.93	97.07	41.14			
c1cc(CNc2ccc(N3CCCC3)cc2)ccn1	56.89	95.63	38.73			
CNC(=S)N/N=C1\CCOc2ccc3ccccc3c21	46.39	96.07	49.68			
COc1cc(C(c2nnnn2C2CCCCC2)N2CCc3ccccc3C2)ccc1O (stereo not drawn)	48.33	105.8	57.44			
O=C1NC(=O)/C(=C/c2ccc(-c3ccc(S(=O)(=O)N4CCOCC4)cc3)o2)S1	69.33	107.9	38.57			

SMILES	Spec Values [1, 4]	BCL-XL % Bound [2, 5] [%]	MCL-1% Bound [3, 6] [%]	Spec Values [1]	BCL-XL % Bound [2] [%]	MCL-1% Bound [3] [%]
CC1(C)c2ssc(=S)c2-c2ccccc2N1C(=O)CSC#N	46.04	93.06	47.02			
Oc1c(C(c2cccs2)N2CCCCC2)ccc2cccnc12 (stereo not drawn)	105.7	115.2	9.463			
O=C(CC1C(=O)c2ccccc2S1(=O)=O)NC1=NN(c2ccccc2)C(=O)C1 (stereo not drawn)	57.74	65.35	7.61			
CC(C)/N=c1\scc(-c2cccs2)n1/N=C/c1ccc(O)c(O)c1O	124.8	101.7	−23.1			
O=C1c2ccccc2-c2onc3ccc(Oc4c(F)c(F)c(F)c(F)c4F)c1c23	45.97	86.73	40.76			
Cc1ccc(C2=NC(=O)C(Cc3cc(O)c(O)c(Br)c3)S2)cc1 (stereo not drawn)	93.98	96.59	2.607			
C=CCN1C(=O)/C(=C2/C(=O)Nc3ccccc32)c2ccccc21	47.06	77.55	30.48			
CCCOC(=O)c1cc(-c2ccc(/C=C3\C(=O)NC(=O)C(C#N)=C3C)o2)ccc1Cl	97.76	87.16	−10.6			
CCN1C(=O)C2Cc3cc(OC)c(OC)cc3CN2C1=S (stereo not drawn)	51.9	91.73	39.84			
O=C(c1ccc(O)cc1)N1CCN(c2cccc(Cl)c2)CC1	62.99	90.71	27.72			
CCCCn1nnnc1COC(=O)/C(C#N)=C/c1ccc(N(C)C)cc1	70.27	62.97	−7.306			
CCCCn1c(=O)[nH]c(=O)c2c1nc(-c1cccs1)c(=O)n2C	62.84	68.85	6.013			
CCc1ccc2c(c1)C1(NN=C(c3ccccc3)S1)C(=O)N2 (stereo not drawn)	55.23	99.43	44.19			
CCOc1cc(C(Nc2cccnc2)c2ccc3cccnc3c2O)ccc1O (stereo not drawn) [drawing 145]	108.7	108.4	−0.3			
NNCc1c(Cl)cccc1Cl	47.77	103.5	55.76			
O=C1NC(=S)S/C1=C\c1ccc(-c2ccc(S(=O)(=O)N3CCOCC3)cc2)o1	69.33	107.9	38.57			
O=C1N/C(=N/c2ccccc2)S/C1=C/C=C/c1ccco1	48.63	97.59	48.95			
O=C1NC(=O)/C(=C\c2cccc(C(F)(F)F)c2)S1	51.57	94.16	42.59			
Cn1c(/N=C/c2c(O)ccc3ccccc23)nc2ccc(Br)cc21	60.88	31.24	−29.64			
Cc1ccc(/C=C/C(=O)N2CCN(C(c3ccccc3)c3ccccc3)CC2)o1	48.08	103.2	55.15			

SMILES	Spec Values [1, 4]	BCL-XL % Bound [2, 5] [%]	MCL-1% Bound [3, 6] [%]	Spec Values [1]	BCL-XL % Bound [2] [%]	MCL-1% Bound [3] [%]
O=C(O)c1cccc(-c2ccc(CC3Sc4ccccc4C3=O)o2)c1 (stereo not drawn)	64.25	95.42	31.17			
O=S(=O)(Nc1ccc(O)c2ccccc12)c1ccccc1	76.72	96.39	19.67			
O=c1c(O)c(-c2cc(O)c(O)c(O)c2)oc2cc(O)cc(O)c12 [Myricetin, reference compound]	68.23	102.4	34.13			
O=c1ccc(-c2ccco2)nn1Cc1ccc(Cl)c(Cl)c1	49.7	96.49	46.79			
C=C/C(=C\C)N(CC)S(=O)(=O)c1ccc(Oc2ccc(-n3ccnc3)cc2)nc1	51.73	102.9	51.21			
COc1ccc2c(c1)CC[C@@H]1C2CC[C@@]2(C)C1CC[C@@H]2NCCCCCCN1C(=O)CCC1=O (stereo partly drawn) [drawing 18]	49.67	106.3	56.6			
O=c1oc2c(-c3cccc(Cl)c3)cc(O)cc2s1	64.95	76.15	11.2			
O=C1NC(=O)N(CCC2=CCCCC2)C(=O)/C1=C/c1cnc(-c2ccccc2)nc1 [drawing 249]				63.4	106.9	43.51
CC(C)(C)c1cc(Cc2ccc(O)c(O)c2)cc(C(C)(C)C)c1O	108.1	96.57	−11.56			
O=C1/C(=C\C=C\c2ccco2)SC(=S)N1NCc1ccccc1O	76.1	95.8	19.8			
CC1(C)CC(=O)C(=Cc2cn(-c3ccccc3)nc2-c2cccs2)C(=O)C1	47.55	90.62	43.07			
CCOc1cccc(CNc2ccc(N3CCCC3)cc2)c1	47.31	82.24	34.93			
Cc1occc1-c1nnc2sc(Cc3cccc4ccccc34)nn12	70.8	129.5	58.7			
Cc1ccc2c(CC(=O)NCC(=O)OCc3ccccc3)coc2c1	59.09	95.64	36.55			
CN1c2ccccc2C(C)(C)C12C=Cc1cc(O)ccc1O2 (stereo not drawn)	73.1	111	37.92			
CC1=NOC(=O)/C1=C/c1ccc(-c2ccc(Cl)cc2)o1 [drawing 255]				62.98	101.5	38.47
Cc1cc(NC(=O)/C=C/c2ccco2)n(-c2nc3ccccc3n2Cc2cccc(Oc3ccccc3)c2)n1	48.1	104.4	56.33			
CCCCCSc1nnc(N/C=N/O)s1	45.49	98.25	52.76			
Oc1ccc(/C=N/c2cccc(C(F)(F)F)c2)c(O)c1	47.26	75.68	28.42			
